Test results taken from patent publication US20050075334A1, “Novel compounds” (priority 2001, published 2005).

| melting point | SMILES |
| --- | --- |
| 376 °C (dec.) | N#Cc1c(Cl)ccc2[nH]c(Sc3cccc4c(=O)cc[nH]c34)nc12 [Example 8, 5-Chloro-2-[(4-oxo-1,4-dihydroquinolin-8-yl)thio]-1H-benzimidazole-4-carbonitrile] |
| 243 to 246 °C | C[S+]([O-])c1c[nH]c2c(Sc3nc4cc(Cl)ccc4[nH]3)ccc([N+](=O)[O-])c12 (stereo not drawn) [Example 16, 5-Chloro-2-([3-(methylsulfinyl)-4-nitro-1H-indol-7-yl]thio}-1H-benzimidazole] |
| > 250 °C | COC(=O)c1cccc2[nH]c(Sc3cccc4c(=O)cc[nH]c34)nc12 [Example 3, 2-(4-Oxo-1,4-dihydro-quinolin-8-ylsulfanyl)-1H-benzoimidazole-4-carboxylic Acid Methyl Ester] |
